Values joined by “and” are separate entries in the source; they are usually repeats but may differ in a detail not shown here. Equal values may be shown once.
Assays:
KPC mouse model of PDAC = test: Quantification of liver metastases (H&E), KPC survival study (Fig. 4g); type: in vivo; settings: for liver metastases/mm2: individual animals
Method: Fig. 4 PXS-5505 administered in a KPC in vivo survival study. a, Schematic of the KPC in vivo survival study. Presence of a primary tumor in KPC mice was confirmed by two independent researchers (positive diagnosis) before commencement of daily treatment (Tx) on one of four treatment arms as follows: vehicle, 0.9% saline; Gem, twice-weekly gemcitabine (100 mg kg^−1 i.p.); PXS-5505, daily PXS-5505 at 20 mg kg^−1 i.p.; and PXS-5505 + Gem, daily PXS-5505 at 20 mg kg^−1 i.p. + twice-weekly gemcitabine (100 mg kg^−1 i.p.). b, Table of median survival (since diagnosis/commencement of treatment) across the four treatment groups (n = 30 biologically independent animals (vehicle), n = 31 biologically independent animals (Gem), n = 36 biologically independent animals (PXS-5505), n = 46 biologically independent animals (PXS-5505 + Gem)). c, Kaplan–Meier curves for overall survival across treatment arms (n = 30 biologically independent animals (vehicle), n = 31 biologically independent animals (Gem), n = 36 biologically independent animals (PXS-5505), n = 46 biologically independent animals (PXS-5505 + Gem)). P values determined by log-rank (Mantel–Cox) test. d, Representative maximum intensity projections of SHG multiphoton imaging for tumors from each treatment group (n = 1 FOV taken from one biologically independent animal per group) at end point (scale bars, 100 μm) and quantification of SHG peak signal intensity (n = 5 biologically independent animals per group and five FOV per animal). Data are mean ± s.d. […] Quantification of metastases (n = 18 biologically independent animals (vehicle), n = 18 biologically independent animals (Gem), n = 17 biologically independent animals (PXS-5505), n = 15 biologically independent animals (PXS-5505 + Gem)). Data are mean ± s.d.
The 4-µm formalin-fixed paraffin-embedded (FFPE) sections were cut and stained for H&E following standard histopathology methodologies or stained for CK19 using the Bond RX H2(30) protocol detailed above. […] The total number of liver metastases were quantified and determined using QuPath[57].

APMA human PDX tumors = test: APMA human PDX model, tumor volumes at end point (Extended Data Fig. 5g); type: in vivo, mouse; settings: Extended Data 5G; second human PDX model after 3 cycles of treatment; individual animals
Method: Subcutaneous PDX studies were performed by implanting early passage PDX pieces (~4 mm^3) or TKCC10 CCs (1.5 × 10^6 cells per mouse in 100 μl PBS/Matrigel 1:1) into female (PDX) or male (TKCC10) 8-week-old immunocompromised nude Balb/c-Fox1nuAusb mice subcutaneously on the left flank. For the duration of the study, mice were kept in conventional caging with environmental enrichment, access to standard chow, water ad libitum and 12-h light–dark cycle at ambient temperature and humidity. Treatment began when tumors reached 150 mm^3, where each mouse was randomized into a treatment group and administered gemcitabine HCl (100 mg kg^−1 in saline) (Jomar Life Research) or vehicle control (0.9% saline) by i.p. injection twice weekly on day 2 and 4 of the treatment cycle until an ethical end point was reached. These included maximal tumor mass ≥10% of body weight, weight loss ≥20% from maximum body weight or tumor interfering with mobility and affecting access to food and water. Animals with non-tumor-related complications that led to a premature end point were censored. PXS-5505 (20 mg kg^−1 in saline) or vehicle (0.9% saline) was administered daily by i.p. injection. Tumor size was monitored every second day by calipers. Tumor volume was calculated using the formula (length × width^2)/2. At day 39, mice were killed via CO2 and cervical dislocation and tumors were collected and processed. […]

SMILES	metastatic foci / metastatic burden in the liver (KPC mouse model of PDAC; compared to vehicle)	liver metastases/mm2 (KPC mouse model of PDAC)	Tumour volumes at endpoint (APMA human PDX tumors)
Nc1ccn([C@@H]2O[C@H](CO)[C@@H](O)C2(F)F)c(=O)n1 [Gem, gemcitabine]	did not reduce the number of metastatic foci	0.000998 /mm2 and 0.00153 /mm2 and 0.000533 /mm2 and 0.002596 /mm2 and 0.002539 /mm2 and 0.002266 /mm2 and 0.001775 /mm2 and 0.001805 /mm2 and 0.001681 /mm2 and 0.002472 /mm2 and 0.001465 /mm2 and 0.003681 /mm2 and 0.001157 /mm2 and 0.004279 /mm2 and 0.0007747 /mm2 and 0.000926 /mm2 and 0.002131 /mm2 and 0.001372 /mm2	145.448 mm3 and 9.626 mm3 and 12.4718 mm3 and 45.315 mm3 and 3.952 mm3 and 50.8335 mm3 and 16.8359 mm3 and 29.7673 mm3 and 51.7185 mm3 and 16.7442 mm3
Cl.Cl.NC/C=C(\F)CS(=O)(=O)c1cccc2cccnc12.O [PXS-5505, (Z)-3-fluoro-4-(quinolin-8-ylsulfonyl)but-2-en-1-amine dihydrochloride monohydrate]		0.001562 /mm2 and 0.001978 /mm2 and 0.00288 /mm2 and 0.001774 /mm2 and 0.002087 /mm2 and 0.001249 /mm2 and 0.00165 /mm2 and 0.00324 /mm2 and 0.001709 /mm2 and 0.002256 /mm2 and 0.001847 /mm2 and 0.001474 /mm2 and 0.001116 /mm2 and 0.0009543 /mm2 and 0.001461 /mm2 and 0.00148 /mm2 and 0.001125 /mm2	111.838 mm3 and 144.188 mm3 and 186.048 mm3 and 277.687 mm3 and 285.67 mm3 and 63.9218 mm3 and 265.041 mm3 and 180.58 mm3 and 65.1463 mm3
